Converted amounts (≈) assume the structure as drawn.
Tests used:
Candida albicans TS3 = assay: Anti-fungal broth microdilution (MIC), fungus F; type: cell-based; conditions: yeast protocol, more than 80% inhibition, 48 h
Method: (§1) Anti-fungal activity of selected compounds of the invention was assessed by means of anti-fungal susceptibility tests as follows.
(§2) The antifungal activities of the compounds of the invention against different fungi were measured according to standard broth microdilution methods of the US National Committee for Clinical Laboratory standards (NCCLS) for yeasts (NCCLS document M27-A, 1997) and filamentous fungi (NCCLS document M38-A, 2002).
(§3) Stock solutions of compounds of the invention were freshly prepared on the days of experiments equal to 1.28 mg/10 ml media. Serial dilutions were performed to achieve the following testing concentrations: 64 μg/ml, 32 μg/ml, 16 μg/ml, 8 μg/ml, 4 μg/ml, 2 μg/ml, 1 μg/ml, 0.5 μg/ml, 0.25 μg/ml and 0.125 μg/ml.
(§4) An inoculum of 10^6 CFU/ml of the fungi strain was prepared in the appropriate medium and transferred to test tubes for incubation.
(§5) The method is used to determine the minimum inhibitory concentrations (MIC) of drugs on fungi strains. […] For the filamentous fungi protocol, MIC determination took place after 48 to 72 h of culture at 35° C. and was defined at that concentration which produced more than 50% visible growth inhibition.

[1] = tested on: Candida albicans ATCC 10231; assay: Anti-fungal broth microdilution (MIC), fungus D; type: cell-based; conditions: yeast protocol, more than 80% inhibition, 48 h
Method: as §1, §2, §3, §4, §5

[2] = tested on: Aspergillus fumigatus 322-384; assay: Anti-fungal broth microdilution (MIC), fungus B; type: cell-based; conditions: filamentous protocol, more than 50% growth inhibition, 48 to 72 h
Method: as §1, §2, §3, §4, §5

[3] = tested on: Cryptococcus neoformans H99; assay: Anti-fungal broth microdilution (MIC), fungus I; type: cell-based; conditions: yeast protocol, more than 80% inhibition, 48 h
Method: as §1, §2, §3, §4, §5

[4] = tested on: Candida albicans ATCC 90028; assay: Anti-fungal broth microdilution (MIC), fungus E; type: cell-based; conditions: yeast protocol, more than 80% inhibition, 48 h
Method: as §1, §2, §3, §4, §5

[5] = tested on: Cryptococcus gattii ATCC 32608; assay: Anti-fungal broth microdilution (MIC), fungus J; type: cell-based; conditions: yeast protocol, more than 80% inhibition, 48 h
Method: as §1, §2, §3, §4, §5

[6] = tested on: Aspergillus fumigatus 040-200167; assay: Anti-fungal broth microdilution (MIC), fungus C; type: cell-based; conditions: filamentous protocol, more than 50% growth inhibition, 48 to 72 h
Method: as §1, §2, §3, §4, §5

[7] = tested on: Aspergillus fumigatus ATCC 204305; assay: Anti-fungal broth microdilution (MIC), fungus A; type: cell-based; conditions: filamentous protocol, more than 50% growth inhibition, 48 to 72 h
Method: as §1, §2, §3, §4, §5

[8] = tested on: Candida parapsilosis ATCC 22019; assay: Anti-fungal broth microdilution (MIC), fungus G; type: cell-based; conditions: yeast protocol, more than 80% inhibition, 48 h
Method: as §1, §2, §3, §4, §5

[9] = tested on: Cryptococcus neoformans ATCC 90112; assay: Anti-fungal broth microdilution (MIC), fungus H; type: cell-based; conditions: yeast protocol, more than 80% inhibition, 48 h
Method: as §1, §2, §3, §4, §5

[10] = tested on: SKOV-3 (human ovary adenocarcinoma) cells; assay: XTT cytotoxicity assay, SKOV-3 cells; type: cell-based; conditions: Homo sapiens, SK-OV-3, second set of experiments, read-out: SKOV-3 % INH [100 μM]
Method: On the first day of the experiment cells were harvested from exponential phase cultures by trypsination, counted and plated into 96 well flat-bottom micro titer plates depending on the cell line as listed below: [table] After a 24 h recovery to allow the cells to resume exponential growth, the test compounds were diluted immediately prior to use and transferred in 25 μl volume to the wells. Following 2 days of continuous drug exposure 50 μl of freshly prepared XTT-PMS solution {2% 0.386 mg/ml PMS (N-Methyl Dibenzopyrazine Methylsulphate; Sigma, Cat. No. […] Serva, Cat. No. 38450) in RPMI 1640 medium without phenol red} was added to the wells. To measure the proportion of living cells, the cells were incubated for 3 h with XTT-PMS reagent at 37° C., 5% CO2, humidified atmosphere allowing to form the formazan salt. […] Inhibition curves were generated and IC50 values calculated by using GraphPad Prism.

[11] = tested on: Bacteroides fragilis DSM 2151 (ATCC 25285); assay: Anti-bacterial bouillon microdilution assay (MIC), bacterium E; type: cell-based; conditions: anaerob, 24 h
Method: (§6) Selected compounds of the invention were tested in a bouillon microdilution assay method according to the DIN 58940 (www.din.de) guidelines for determination of susceptibility of bacterial strains with regard to cell growth inhibition. The assay method quantifies bacterial cell growth which corresponds to the turbidity of the liquid culture medium by photometric measurement carried out at 595 nm.
(§7) The method of MIC determination was performed according to DIN 58940-5. The volumina were adapted according to the microdilution method as described in DIN 58940-7 guideline.
(§8) Dependent on water solubility, compounds of the invention were dissolved either in water or ethanol in a concentration of 10 mg/ml. Subsequently, the stock was further diluted in water to a concentration of 512 μg/ml. The following serial dilutions (factor 2) were performed in water resulting in the following […] testing concentrations: 256 μg/ml, 128 μg/ml, 64 μg/ml, 32 μg/ml, 16 μg/ml, 8 μg/ml, 4 μg/ml, 2 μg/ml, 1 μg/ml, 0.5 μg/ml, 0.25 μg/ml and 0.125 μg/ml. Diluted compounds of the invention were transferred in 100 μl volume to the microtiter plate wells.
(§9) Pre-cultures of bacteria were grown in appropriate liquid media (refer to ATCC webpage, www.atcc.org) and afterwards were inoculated in corresponding liquid medium. 100 μl of the inoculums [adjusted to an amount of app. 1×10^6 microorganisms per ml (range of 10^5-10^8 microorganisms per ml)] were added to each of the testing compound concentrations and cultivated under the appropriate conditions.
(§10) Before and after incubation, bacterial growth was determined by photometric analysis against a positive control containing growing bacteria without compound and a sterile/negative control containing only the medium.

[12] = tested on: PC3 (human prostate carcinoma) cells; assay: XTT cytotoxicity assay, PC3 cells; type: cell-based; conditions: Homo sapiens, PC-3; 31.6 μM, second set of experiments; read-out: PC3 % INH [31.6 μM]
Method: (§11) Cytotoxicity of selected compounds of the invention against different mammalian cell lines was assessed as follows.
(§12) Human tumor cell lines KB/HeLa (ATCC CCL17, human cervix carcinoma), PC3 (ATCC CRL1435, human prostate carcinoma) and RKOp21 (human colon adenocarcinoma; Schmidt et al., Oncogene 2000, 19: 2423-2429) cells were used in an automated XTT screening assay for the assessment of cytotoxicity.
(§13) The XTT assay quantifies cellular metabolic activity which correlates with cell viability and cell number. Test compounds (selected compounds of the invention and known substances as controls) are dissolved in culture medium at 600 μM and added to the tumor cells in 10 different concentrations in a semi-logarithmic fashion starting from 100 μM as highest concentration.
(§14) In a second set of experiments employing PC3, RKOp21 and SKOV-3 (ATCC HTB-77, human ovary adenocarcinoma) cells, test and reference compounds were dissolved in 70% Ethanol/30% H2O in a stock concentration of 10 mM and diluted in cell culture medium to yield either 31.6 μM (PC3 and RKOp21) or 100 μM (SKOV-3) final concentration.
(§15) 48 h later cellular metabolic activity of cells treated with test compounds is quantified by measurement of the absorbance at 490 nm (conversion of XTT dye) in comparison to untreated control cells (100% viability).
(§16) KB/HeLa and PC3 cells were cultivated in RPMI 1640 medium (Gibco, Cat. No. 42401-018) supplemented with 10% heat inactivated fetal calf serum (FCS, Biochrom AG, Cat. No. S0115), 2 mM L-glutamine (Gibco, Cat. No. 25030-24) and 2% Penicillin-Streptomycin (PenStrep, Gibco, Cat. No. 15140-122). RKOp21 cells were grown in DMEM+GlutaMAXTM-I medium (Gibco, Cat. No. 61965-026) supplemented with 10% heat inactivated fetal calf serum (FCS, Biochrom AG, Cat. No. S0115), 2 mM L-glutamine (Gibco, Cat. No. 25030-24), 2% Penicillin-Streptomycin (PenStrep, Gibco, Cat. No. 15140-122) and 1% 1M HEPES (Gibco, Cat. No. 15630-056). All cells were cultured at 37° C. in 5% CO2 humidified air.
(§17) On the first day of the experiment cells were harvested from exponential phase cultures by trypsination, counted and plated into 96 well flat-bottom micro titer plates depending on the cell line as listed below:
(§18) After a 24 h recovery to allow the cells to resume exponential growth, the test compounds were diluted immediately prior to use and transferred in 25 μl volume to the wells.
(§19) Following 2 days of continuous drug exposure 50 μl of freshly prepared XTT-PMS solution {2% 0.386 mg/ml PMS (N-Methyl Dibenzopyrazine Methylsulphate; Sigma, Cat. No. P9625) in PBS+98% 1 mg/ml XTT (Sodium 2,3-bis(2-methoxy-4-nitro-5-sulfophenyl)-5-[(phenylamino)carbonyl]-2H-Tetrazolium; Serva, Cat. No. 38450) in RPMI 1640 medium without phenol red} was added to the wells. To measure the proportion of living cells, the cells were incubated for 3 h with XTT-PMS reagent at 37° C., 5% CO2, humidified atmosphere allowing to form the formazan salt. The amount of soluble formazan salt produced by cellular reduction of XTT is quantified by measuring the absorbance at 490 nm using the Biomek® 2000 ELISA plate reader. %-inhibition (cytotoxicity) of each test compound was calculated in relation to untreated control cells. Inhibition curves were generated and IC50 values calculated by using GraphPad Prism.

[13] = tested on: PC3, RKOp21 and SKOV-3 cell lines; assay: XTT cytotoxicity assay, mean over all three cell lines; type: cell-based, human; conditions: mean value over all three cell lines
Method: Following 2 days of continuous drug exposure 50 μl of freshly prepared XTT-PMS solution {2% 0.386 mg/ml PMS (N-Methyl Dibenzopyrazine Methylsulphate; Sigma, Cat. No. […] Serva, Cat. No. 38450) in RPMI 1640 medium without phenol red} was added to the wells. To measure the proportion of living cells, the cells were incubated for 3 h with XTT-PMS reagent at 37° C., 5% CO2, humidified atmosphere allowing to form the formazan salt. […] Inhibition curves were generated and IC50 values calculated by using GraphPad Prism. In the following table 7 cytotoxicity results (% inhibition of cell growth) obtained in the second set of experiments for selected compounds of the invention are presented in comparison to examples of the prior art (perifosine, miltefosine). The results presented are individual values for the respective cell line as well as the mean value over all three cell lines tested.

[14] = tested on: RKOp21 (human colon adenocarcinoma) cells; assay: XTT cytotoxicity assay, RKOp21 cells; type: cell-based; conditions: Homo sapiens; 31.6 μM, second set of experiments; read-out: RKOp21 % INH [31.6 μM]
Method: as §11, §12, §13, §14, §15, §16, §17, §18, §19

[15] = tested on: Moraxella catarrhalis DMS 11994 (ATCC 43617); assay: Anti-bacterial bouillon microdilution assay (MIC), bacterium D; type: cell-based; conditions: ATCC43617, 24 h
Method: as §6, §7, §8, §9, §10

SMILES	MIC, fungus F (Candida albicans TS3) [µg/mL]	MIC, fungus D [1] [µg/mL]	MIC, fungus B [2] [µg/mL]	MIC, fungus I [3] [µg/mL]	MIC, fungus E [4] [µg/mL]	MIC, fungus J [5] [µg/mL]	MIC, fungus C [6] [µg/mL]	MIC, fungus A [7] [µg/mL]	MIC, fungus G [8] [µg/mL]	MIC, fungus H [9] [µg/mL]	inhibition at 100 µM [10] [%]	MIC [11] [µg/mL]	inhibition at 31.6 µM [12] [%]	Mean % INH [13] [%]	inhibition at 31.6 µM [14] [%]	MIC [15] [µg/mL]
CCCCCCCCCCCCCCCCCCOP(=O)([O-])OCC[As+](C)(C)C [Compound 22, Phosphoric acid octadecyl ester 2-(N,N,N-trimethyl-arsen)-ethyl ester]	1	0.5	2	6.6	1	0.5	3	3	1	1.5	–	–	–	–	–	–
CCCCCCCCCCCCCCCCOP(=O)([O-])OCC[N+]1(C)CCCC1 [Compound 90]	–	–	–	–	–	–	–	–	–	–	54.6	128 (≈ 295 µM)	55.5	54.0	51.9	–
CCCCCCCCCCCCCCCCOP(=O)([O-])OCC[N+]1(C)C=CC(C(=O)OCC)CC1 (stereo not shown) [Compound 266]	–	–	–	–	–	–	–	–	–	–	8.5	128 (≈ 247 µM)	25.8	13.6	6.6	8 (≈ 15.5 µM)
CCCCCCCC/C=C\CCCCCCCCCCCCOP(=O)([O-])OCC[N+](C)(C)C [ErPC, (13Z)-docosenylphosphocholine, reference compound]	64 (≈ 131 µM)	>64	>64	3 (≈ 6.13 µM)	>64	1.5 (≈ 3.06 µM)	>64	>64	64 (≈ 131 µM)	4 (≈ 8.17 µM)	–	–	–	–	–	–

— patent US20070167408A1, “NOVEL ALKYL PHOSPHOLIPID DERIVATIVES WITH REDUCED CYTOTOXICITY AND USES THEREOF” (ZENTARIS GmbH, priority 2005, published 2007)
